Measured values reported in patent US20190209569A1, “PHARMACEUTICAL COMPOSITION FOR SUPPRESSING APPETITE, CONTAINING N2-(M-TRIFLUOROBENZYL), N6-(P-NITROBENZYL)PURINE (TNP) OR PHARMACEUTICALLY ACCEPTABLE SALT THEREOF AS ACTIVE INGREDIENT” (priority 2016, published 2019).

Experiments:
food intake = assay: Effect of single administration of TNP in the third ventricle on food intake; format: in vivo, mouse
Protocol: (§1) Adult male C57BL/6 mice were purchased from Orient Bio (Gyeonggi-do, Korea) and the mice were allowed to take the standard diet (Agri Purina, Seoul, Korea) freely. The mice were raised in the controlled condition (temperature: 22±1° C., light/dark cycle: 12/12 hr (light condition: 8:00 am˜8:00 pm)). A cannula was intubated in the third ventricle of the mouse for the administration of TNP. For the cannulation, the mouse was anesthetized with a mixture of Zoletil and Rumpun (2:1 v/v, 10 μl/g weight) and then a permanent 26-gauge stainless steel cannula was inserted in the third ventricle of the mouse. The insertion position of the cannula was 1.8 mm back from the bregma and 5.0 mm down from the sagittal sinus. The exact cannulation site was confirmed by the positive dipsogenic response after the administration of angiotensin II (50 ng). Only those mice that were confirmed to have cannulae in the correct location were used for data analysis. After the 7 day recovery period, the mice were massaged every day for 1 week in order to minimize the stress response to the experiment.
The mice cannulated in Example 1 were fasted for 18 hours and then administered at different concentrations of TNP (0.4 pg, 0.04 ng, and 0.4 ng; Calbiochem) in the early light phase (9:00 am˜11:00 am). Before the administration, TNP was dissolved in 0.9% saline. 2 μl of the TNP dissolved in saline at different concentrations (0.4 pg, 0.04 ng, and 0.4 ng) was administered via the cannula into the third ventricle. For the control, the same amount of saline was administered.
5 mice treated with saline, 5 mice treated with 0.4 pg of TNP, 5 mice treated with 0.04 ng of TNP, and 4 mice treated with 0.4 ng of TNP were fasted for 18 hours as described in Example 2. TNP was administered once into the third ventricle of the mice. Then, the mice were allowed to take food freely and the food intake was measured for 24 hours.
All experimental values of the present invention were expressed as mean±standard error ([…]). Statistical analysis was performed by Student's t-test. […]

weight gaining = assay: Effect of single administration of TNP in the third ventricle on weight control; format: in vivo, mouse; settings: mice fasted for 18 hours; single administration of 0.4 pg, 0.04 ng or 0.4 ng into the third ventricle; observed for 24 hours; FIG. 2
Protocol: as §1
The mice cannulated in Example 1 were fasted for 18 hours and then administered at different concentrations of TNP (0.4 pg, 0.04 ng, and 0.4 ng; Calbiochem) in the early light phase (9:00 am˜11:00 am). Before the administration, TNP was dissolved in 0.9% saline. […]

[1] = single administration into the third ventricle, 0.4 pg, 0.04 ng, 0.4 ng, vs saline

## O=[N+]([O-])c1ccc(CNc2nc(NCc3cccc(C(F)(F)F)c3)nc3[nH]cnc23)cc1 [TNP, N2-(m-Trifluorobenzyl), N6-(p-nitrobenzyl)purine]
Food intake; male C57BL/6 mice fasted for 18 hours, single administration of 0.4 pg, 0.04 ng or 0.4 ng into the third ventricle, food intake measured for 24 hours, FIG. 1
  food intake compared to the mice administered with saline: significantly reduced
Food intake; [1]
  time after administration at which the food intake reduction effect was still maintained: ≥ 24 h
  time after administration from which the food intake reduction effect was significant: 2 h
Weight gaining
  weight gaining compared to the control mice treated with saline: significantly suppressed
